Assay results from patent US20030050236A1, “Compounds that enhance tumor death” (The University of Chicago, priority 2000, published 2003).
One block for each compound: values may come before it. Where a SMILES comes first, the peptide text is derived from it. [ ]: non-standard residue; d: D form. The star is where a group is joined. Palmitoyl = CCCCCCCCCCCCCCCC(=O)*; Dap = NC[C@H](N)C(=O)O

Tests used:
[1] = system: LA-N-5 human neuroblastoma cells; assay: Cell viability / cell death by MTT assay; type: cell-based
Procedure: Cells were plated in 24-well culture plates containing 500 μl media. After drug treatment, 50 μl MTT (5 mg/ml in PBS) was added and incubated for 20 min at 37° C. An aliquot of 500 μl of 10% sodium dodecyl sulfate in 0.01 N HCl was added. After incubating overnight, the absorbance at 570 nm was determined by spectrophotometry. Cell viability was calculated as percent cell survival by dividing absorbance [treatment-blank] by absorbance [control-blank], where treatment is the reading for the treated cells, control is for vehicle-treated cells and blank is for MTT added to the media without cells.
LA-N-5 human neuroblastoma cells were grown in DMEM supplemented with 10% fetal bovine serum and 1% gentamicin. […] Cell death was measured by the MTT method (Cho et al., 2000a; Cho et al., 2000b; Cho et al., 2000c).

caspase 3 = assay: Caspase 3-like activity (DEVD-AFC) in LA-N-5 cells; type: cell-based, human; details: LY-294002 30 μM, C2 ceramide 25 μM
Procedure: Cells treated with drug or vehicle were harvested, washed with PBS and cell pellets lysed in 25 mM Hepes (pH 7.4), containing 2 mM dithiothreitol (DTT), 5 mM EDTA and […] digitonin. After centrifugation at 6,000 rpm for 10 min to remove cell debris and unruptured cells, an aliquot of the supernatant was added to a reaction buffer consisting of 25 mM Hepes (pH 7.4), 2 mM DTT, 5 mM EDTA, […] digitonin and 2.5 μg/ml DEVD-AFC. After 1 h incubation, the hydrolysis of substrate was quantified by fluorometry at excitation 400 mn and emission 505 nm. The blank reaction was done in the absence of cell lysate. Enzyme activity was expressed as the amount of fluorescence produced per mg protein/h.

LA-N-5 cells = assay: DNA fragmentation assay (Hoechst 33285); type: cell-based, human; details: LY-294002 30 μM, C2 ceramide 25 μM
Procedure: Quantification of DNA fragments was performed as described previously (Dawson et al., 1997). Briefly, cells were lysed in 5 mM Tris (pH 8.0) with 0.1% Triton X-100 and 20 mM EDTA and centrifuged at 20,000× g for 40 min at 4° C. For determination of DNA fragments lost in culture media, an aliquot of media was adjusted to a final concentration of 25 mM EDTA and centrifuged as described above. […] Fluorescence was detected by luminescent spectrometer using excitation 365 nm and emission 460 mn. DNA values were calculated using a standard curve obtained from the measurement of calf thymus DNA fluorescence.

Ras = Ras activation: guanine nucleotide binding and membrane association; type: cell-based, human; details: C2 ceramide 30 μM
Procedure: (§1) Cells were harvested in a lysis buffer containing 10 mM Tris (pH 7.4), 1 mM EGTA, 1 mM EDTA, 1 mM DTT, 25 mM NaF, 2 mM MgCl2 and 10 μg/ml aprotinin, leupeptin and pepstatin. For subcellular fractionation, the postnuclear cell extract was centrifuged at 100,000× g for 45 min to obtain a cytosolic fraction and the pellet was washed and resuspended in a lysis buffer to obtain a membrane fraction. Whole cell lysate (for caspase-3 and pFLAG-PPT1) or fractionated proteins (for p21Ras and GAP-43) were resolved by 10%, 12% or 15% of SDS-PAGE for GAP-43, caspase-3 and pFLAG-PPT1, or Ras, respectively. For immunoblotting with anti-Akt antibodies, cells were lysed in RIPA buffer consisting of 50 mM Tris (pH 7.4), 150 MM NaCl, 1 mM EGTA, 1% Nonidet P-40, 0.25% sodium deoxycholate, 1 mM NaF and protease inhibitors. After lysis on ice for 1 h, cell debris was removed by centrifugation at 3,000 rpm for 5 min and an equal amount of postnuclear cell extract loaded on 8.5% SDS-PAGE. Resolved proteins were transferred to membrane overnight, blots incubated with a blocking solution for 1 h, incubated with appropriate primary and secondary antibodies and the signals detected by ECL.
Cells (10×10^6) were washed and incubated with 0.8 mCi/ml ^32Pi for 4 h in phosphate-free DMEM. […] Cell lysate was immunoprecipitated with monoclonal anti-Ras and bound nucleotides eluted with 1 mM EDTA/25 μM GDP and GTP were analyzed by TLC using 0.75 M KH2PO4 (pH 3.5). After autoradiography, the radioactive spots corresponding to GDP and GTP were counted.
p21^Ras is a key regulator in the signaling pathways involved in variety of events such as cell proliferation, transcription and apoptosis. […] Therefore, the subcellular localization of Ras protein was analyzed after C2-ceramide treatment. Cells were treated with C2 ceramide (30 μM), harvested at 10 min and 60 min and the membrane fraction (100,000× g pellet) analyzed by immunoblotting.

[2] = system: COS cells and embryonic neuron primary cultures
PPT1 = target: T1, PPT1 (Homo sapiens, UniProt P50897); assay: In vitro PPT1 activity assay, [14C]palmitoyl peptide substrates, cell extract; details: read-out: inhibition in an in vitro assay (PPT)
T1 sequence (P50897 28-306): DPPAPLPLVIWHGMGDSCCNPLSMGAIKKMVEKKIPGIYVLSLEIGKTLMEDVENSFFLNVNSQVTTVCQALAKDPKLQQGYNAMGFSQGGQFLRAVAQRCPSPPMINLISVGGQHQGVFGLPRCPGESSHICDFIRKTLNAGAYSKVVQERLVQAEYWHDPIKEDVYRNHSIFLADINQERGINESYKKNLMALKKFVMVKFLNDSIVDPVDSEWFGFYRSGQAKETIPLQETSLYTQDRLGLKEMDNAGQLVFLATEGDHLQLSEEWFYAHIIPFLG
Procedure: Incubations were performed for 20 min at 37° C. and reactions terminated by addition of 1 ml of chloroform/methanol/2N HCl (2:1:0.06, v/v). After the centrifugation, organic phase was analyzed by HPTLC using n-butanol/pyridine/acetic acid/water (45:30:9:36, v/v) and [14C] palmitate release was quantified.
The peptide sequence, AcGCVKIKK (a palmitoylation site in K-Ras), was modified by substituting the SH group of cysteine with NH2 to generate diamino propionic acid, which was then acylated with palmitate (AcG-palmitoyl diamino propionate-VKIKK). […] In another set of experiments, the unmodified peptide itself (AcGCVKIKK) was used as a control to exclude the possibility of a nonspecific effect of the sequence on PPT activity.
In brief, the cell sonicate was incubated in the assay mixture containing 50 mM sodium citrate (pH 4.0) and IRY([^4C]palmitoylated)CWLRR octapeptide (2,000-4,000 cpm) for 20 min at 37° C. For the pH profile of PPT1 activity, 50 mM sodium citrate (pH 5 or 6) or 50 mM Tris-HCl (pH 7.4) was used with other conditions remaining the same. After addition of 1 ml of chloroform/methanol/2N HCl (2:1:0.06, by volume) and centrifugation, the organic phase was dried, reconstituted sample analyzed by HPTLC using n-butanol/pyridine/acetic acid/water (45:30:9:36, by volume) and the radioactive spot corresponding to [^14C] palmitate was counted.
PPT1 activity was measured as described above. In brief, the cell sonicate was incubated in the assay mixture (50 mM sodium citrate (pH 4.0) for [^14C]palmitoylated [sequence] Po peptide substrate (3,000-4,000 cpm) or 50 mM Tris (pH 7.4) for [^14C]palmitoylated MLCCMRR GAP43 peptide substrate) for 20 min at 37° C. After organic extraction, samples were analyzed by HPTLC using n-butanol/pyridine/acetic acid/water (45:30:9:36, by volume) and the radioactive spot corresponding to [^14C] palmitate was counted.

Akt = Akt phosphorylation immunoblot; type: cell-based, human; details: insulin 5 min; LY294002 pretreatment; vector-transfected cells
Procedure: as §1, with “After lysis on ice for 1 h, cell debris was removed by centrifugation at 3,000 rpm for 5 min and an equal amount of postnuclear cell extract loaded on 8.5% SDS-PAGE.” left out
To further investigate the downstream pathway by which PPT1 exerts protection against apoptosis, the activation of Akt was examined in control and PPT1 overexpressing cells. […] Therefore, the activation of Akt was analyzed by immunoblotting the cell extracts with an antibody specific to phosphorylated Akt (Ser473). […]

Compound: CCCCCCCCCCCCC/C=C/[C@@H](O)[C@H](CO)NC(C)=O [C2 ceramide]
- death of cells (MTT) ([1]; 30 μM C2-ceramide alone, 6 h): about 10%
- cell death (MTT assay) ([1]; LY-294002 30 μM, C2 ceramide 25 μM, 24 hrs): about 50%
- activation of caspase 3 (caspase 3): time-dependent activation of caspase 3
- DNA fragmentation (LA-N-5 cells): increase in DNA fragmentation
- GTP/(GDP+GTP) ratio increase over control (Ras; 10 min): 33%
- membrane-association of Ras (Ras; 10 min and 60 min): time-dependent increase in membrane-association of Ras
- GTP/(GDP+GTP) ratio increase over control (Ras; 60 min): 85%

- effect on COS cells and embryonic neuron primary cultures [2]: much less effect
- inhibition at 20 µM (PPT1): 85%
Compound: CCCCCCCCCCCCCCCC(=O)NC[C@H](NC(=O)CNC(C)=O)C(=O)N[C@H](C(=O)N[C@@H](CCCCN)C(=O)N[C@H](C(=O)N[C@@H](CCCCN)C(=O)N[C@@H](CCCCN)C(N)=O)[C@@H](C)CC)C(C)C [DAP1, AcG-palmitoyl diamino propionate-VKIKK] (Ac-G[Dap](Palmitoyl)VKIKK-NH2)
- toxicity to non-dividing cells (non-dividing cells): does not appear to be toxic

Compound: insulin: growth factor used as positive control for Akt activation
- phosphorylation of Akt (Ser473) (Akt): induced significant phosphorylation of Akt
